The target of series [1] is Replicase polyprotein 1ab (Severe acute respiratory syndrome coronavirus 2, UniProt P0DTD1). Put plainly: Inhibition of SARS-CoV-2 MPro using Dabcyl-KTSAVLQSGFRKME-Edans as substrate assessed as inhibition constant measured for 10 mins by FRET assay.
The target in series [2] is T1, Procathepsin L (Homo sapiens, UniProt P07711). Kind of series: Inhibition of human Cathepsin L using Cbz-Phe-Arg-AMC as substrate assessed as inhibition constant measured for 10 mins by fluorescence assay.
Target sequence in this assay (P07711 whole entry): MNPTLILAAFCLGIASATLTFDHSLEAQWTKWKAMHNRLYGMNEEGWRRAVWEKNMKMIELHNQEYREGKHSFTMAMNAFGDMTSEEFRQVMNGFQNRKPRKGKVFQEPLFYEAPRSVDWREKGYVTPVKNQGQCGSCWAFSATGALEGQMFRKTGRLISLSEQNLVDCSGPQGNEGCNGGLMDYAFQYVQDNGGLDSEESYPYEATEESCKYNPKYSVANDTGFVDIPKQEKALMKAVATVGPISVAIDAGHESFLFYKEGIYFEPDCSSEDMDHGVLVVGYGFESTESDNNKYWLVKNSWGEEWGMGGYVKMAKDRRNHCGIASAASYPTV
The target of a further series is Cathepsin B (Homo sapiens, UniProt P07858). Put plainly: Inhibition of human Cathepsin B using Cbz-Phe-Arg-7-amino-4-methylcoumarin as substrate assessed as inhibition constant measured for 10 mins by fluorescence assay.
The target of series [3] is Replicase polyprotein 1ab (Severe acute respiratory syndrome coronavirus 2) (UniProt P0DTD1). Kind of series: Inhibition of SARS-CoV-2 PLpro using Z-RLRGG-AMC acetate as substrate at 100 uM measured for 10 mins by fluorescence assay.
Series [4] has as its target Genome polyprotein (dengue virus type 2) (UniProt P29990). Put plainly: Inhibition of Dengue virus NS2B-NS3 protease Boc-GRR-AMC as substrate at 100 uM measured for 10 mins by fluorescence assay.
The target of series [5] is Replicase polyprotein 1ab (Severe acute respiratory syndrome coronavirus 2) (UniProt P0DTD1). Put plainly: Covalent irreversible inhibition of SARS-CoV-2 MPro using Dabcyl-KTSAVLQSGFRKME-Edans as substrate assessed as reduction in enzyme recovery at 5 fold IC50 preincubated for 60 mins followed by dilution to 1 fold IC50 and substrate addition by fluorescence based assay.

The target of series [6] is T1, Procathepsin L. Put plainly: Covalent irreversible inhibition of human Cathepsin L using Cbz-Phe-Arg-AMC as substrate assessed as reduction in enzyme recovery at 5 fold IC50 preincubated for 60 mins followed by dilution to 1 fold IC50 and substrate addition by fluorescence based assay.
Target sequence in this assay (P07711 114-333 limits assumed): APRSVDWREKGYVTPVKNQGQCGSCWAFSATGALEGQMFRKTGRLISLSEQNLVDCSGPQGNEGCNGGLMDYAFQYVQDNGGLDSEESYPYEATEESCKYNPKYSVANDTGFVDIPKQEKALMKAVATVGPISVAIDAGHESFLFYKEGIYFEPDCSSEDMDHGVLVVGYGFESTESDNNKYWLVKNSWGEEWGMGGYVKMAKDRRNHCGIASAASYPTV
Series [7] addresses Replicase polyprotein 1ab (Severe acute respiratory syndrome coronavirus 2) (UniProt P0DTD1). Kind of series: Covalent irreversible inhibition of SARS-CoV-2 MPro using Dabcyl-KTSAVLQSGFRKME-Edans as substrate assessed as reduction in enzyme recovery at 10 fold IC50 preincubated for 60 mins followed by dialysis for 25 hrs further incubated with substrate and measured over 10 mins by fluorescence based assay. To be noted: time 1570.0 min.

The test system of the next series is Huh-7. In kind it is toxicity, cell-based. To be noted: human, huh-7, 24 h.

Calls of active or inactive are those of the source. The rule behind the calls is not given here.

For the molecule `CC(=O)/C=C/[C@H](C[C@@H]1CCNC1=O)NC(=O)[C@H](CC(C)C)NC(=O)OCc1ccccc1`, in [1], the inhibition constant Ki (as a rule, the equilibrium dissociation constant of an inhibitor or competing ligand from its target) is 386 nM.

On to `CC(=O)/C=C/[C@H](C[C@@H]1CCNC1=O)NC(=O)[C@H](CC1CCCCC1)NC(=O)OCc1ccccc1`, for which the results for the inhibition constant (Ki) (in series [1]; at Procathepsin L [2]; on Cathepsin B) were 184 nM, 252 nM and 14400 nM, respectively. In addition, the inhibition entry in series [3] and in [4] was “inactive” in each case. Further, the inhibition entry (in series [5]; on Procathepsin L [6]; in series [7]) was “Active” each time. In the series on Huh-7, the 50% cytotoxic concentration (CC50) (usually the concentration that lowers cell viability or growth by half) came to 14500 nM.

Consider `CC(=O)/C=C/[C@H](C[C@@H]1CCNC1=O)NC(=O)[C@H](CC1CC1)NC(=O)OCc1ccccc1`, for which the inhibition constant (Ki) in series [1] is 252 nM; on Procathepsin L [2], 3380 nM; at Cathepsin B, 7880 nM. For the same molecule, the inhibition entry in series [3] and in series [4] was “inactive” throughout. Further, the inhibition result (in series [5]; at Procathepsin L [6]; in [7]) was “Active” throughout. The molecule further displayed a half-maximal cytotoxic concentration (CC50) in the series on Huh-7 of 100000 nM.

Regarding `CCC[C@H](NC(=O)OCc1ccccc1)C(=O)N[C@H](/C=C/C(C)=O)C[C@@H]1CCNC1=O`, the Ki in series [1] was 1770 nM.

As to `CCCC[C@H](NC(=O)OCc1ccccc1)C(=O)N[C@H](/C=C/C(C)=O)C[C@@H]1CCNC1=O`, the Ki in [1] worked out at 260 nM; at Procathepsin L [2], 1920 nM; on Cathepsin B it was 11100 nM. Also, the inhibition result in [3] and in [4] was “inactive” throughout. The inhibition entry (in series [5]; on Procathepsin L [6]) was “Active” throughout. In the series with Huh-7, the cytotoxic concentration (CC50) is 60900 nM.

Regarding `CC(=O)/C=C/[C@H](C[C@@H]1CCNC1=O)NC(=O)[C@H](CC(C)(C)C)NC(=O)OCc1ccccc1`, the Ki in [1] is 416 nM.
